Assay results reported in ChEMBL document CHEMBL1130241, “Design, synthesis, and biochemical evaluation of phosphonate and phosphonamidate analogs of glutathionylspermidine as inhibitors of glutathionylspermidine synthetase/amidase from Escherichia coli” (J Med Chem, 1997).

Columns and labels:
Escherichia coli [1] = experiment: Inhibition of glutathionylspermidine amidase at 1 mM; not detectable
[2] = molecular target: Glutathionylspermidine synthetase/amidase (Escherichia coli) (UniProt P0AES0); experiment: Inhibition of Glutathionylspermidine synthetase
Chain of Glutathionylspermidine synthetase/amidase (Escherichia coli) (P0AES0 whole entry, looked up): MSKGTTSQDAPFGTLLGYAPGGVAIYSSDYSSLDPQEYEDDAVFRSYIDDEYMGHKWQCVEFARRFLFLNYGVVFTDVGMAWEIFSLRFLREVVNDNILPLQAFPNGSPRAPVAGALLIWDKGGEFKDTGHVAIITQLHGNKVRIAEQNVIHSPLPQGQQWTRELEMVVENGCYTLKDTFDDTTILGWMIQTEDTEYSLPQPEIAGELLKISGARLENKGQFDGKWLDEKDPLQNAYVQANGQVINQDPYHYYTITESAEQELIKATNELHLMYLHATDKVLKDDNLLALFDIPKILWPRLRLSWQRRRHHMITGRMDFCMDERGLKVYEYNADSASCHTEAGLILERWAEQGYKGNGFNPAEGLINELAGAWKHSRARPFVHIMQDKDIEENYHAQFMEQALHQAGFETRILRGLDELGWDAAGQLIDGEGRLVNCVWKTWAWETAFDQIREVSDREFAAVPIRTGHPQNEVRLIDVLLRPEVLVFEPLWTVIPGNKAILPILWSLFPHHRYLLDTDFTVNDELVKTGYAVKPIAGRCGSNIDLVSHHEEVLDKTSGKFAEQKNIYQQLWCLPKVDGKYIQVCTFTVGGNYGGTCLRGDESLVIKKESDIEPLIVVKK

[3] = molecular target: Glutathionylspermidine synthetase/amidase (Escherichia coli) (UniProt P0AES0); experiment: Percentage of inhibition of Glutathionylspermidine synthetase at 1 mM concentration
[4] = molecular target: Glutathionylspermidine synthetase/amidase (Escherichia coli) (UniProt P0AES0); experiment: Percentage of inhibition of Glutathionylspermidine synthetase at 7.3 mM concentration
Escherichia coli [5] = experiment: Inhibition of Glutathionylspermidine amidase at 1 mM compound concentration
[6] = molecular target: T1, Glutathionylspermidine synthase (Crithidia fasciculata, UniProt P90518); experiment: Inhibition of Glutathionylspermidine synthetase. Values from different publications.; parameters: species or system Escherichia coli
T1 sequence (P90518 whole entry): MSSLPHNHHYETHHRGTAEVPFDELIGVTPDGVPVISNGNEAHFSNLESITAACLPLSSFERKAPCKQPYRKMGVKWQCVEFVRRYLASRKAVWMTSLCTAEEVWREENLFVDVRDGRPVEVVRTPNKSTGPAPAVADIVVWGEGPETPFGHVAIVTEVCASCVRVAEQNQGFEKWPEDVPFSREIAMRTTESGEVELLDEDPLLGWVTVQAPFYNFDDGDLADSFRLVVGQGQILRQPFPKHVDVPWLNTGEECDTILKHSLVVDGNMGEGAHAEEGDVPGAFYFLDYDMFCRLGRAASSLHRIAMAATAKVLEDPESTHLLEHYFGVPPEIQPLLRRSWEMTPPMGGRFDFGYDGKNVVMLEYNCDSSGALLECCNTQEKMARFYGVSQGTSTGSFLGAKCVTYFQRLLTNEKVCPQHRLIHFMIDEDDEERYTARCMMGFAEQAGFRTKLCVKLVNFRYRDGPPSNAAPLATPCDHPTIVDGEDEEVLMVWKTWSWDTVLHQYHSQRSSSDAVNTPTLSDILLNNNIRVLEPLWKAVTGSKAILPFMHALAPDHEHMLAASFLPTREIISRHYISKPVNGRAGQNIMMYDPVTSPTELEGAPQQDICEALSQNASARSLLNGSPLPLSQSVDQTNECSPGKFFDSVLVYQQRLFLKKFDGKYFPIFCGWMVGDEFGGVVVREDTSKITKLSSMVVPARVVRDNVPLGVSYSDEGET

Structure (SMILES): C[C@H](NC(=O)CC[C@H](N)C(=O)O)C(=O)NCP(=O)(O)OCCCNCCCCN
- inhibition (Escherichia coli [1]): not detectable
- Ki [2]: 6 µM

Structure (SMILES): CCCCNP(=O)(CNC(=O)[C@H](C)NC(=O)CC[C@H](N)C(=O)O)OC (some centres not stated)
- inhibition [3]: 5.7%
- inhibition [4]: 31.3%
- inhibition (Escherichia coli [5]): 1.8%

Structure (SMILES): COP(=O)(CNC(=O)[C@H](C)NC(=O)CC[C@H](N)C(=O)O)NCCCNCCCCN (some centres not stated)
- Ki [6]: 24 µM
- inhibition (Escherichia coli [5]): 3.4%
